{"source": "patent US7186826B2", "about": "“Phosphorus-containing compounds and uses thereof” (ARIAD Gene Therapeutics, Inc., priority 2002, dated 2007)", "origin": "cited, not measured here", "settings": "see WO 03/022807 and 99/15530"}
{"smiles": "CO[C@H]1C[C@@H]2CC[C@@H](C)[C@@](O)(O2)C(=O)C(=O)N2CCCC[C@H]2C(=O)O[C@H]([C@H](C)C[C@@H]2CC[C@H](n3cnnn3)[C@H](OC)C2)CC(=O)[C@H](C)/C=C(\\C)[C@@H](O)[C@@H](OC)C(=O)[C@H](C)C[C@H](C)/C=C/C=C/C=C/1C", "note": "[ABT-578]", "values": [{"measurement": "biological half-life", "result": "shortened"}]}
